In brackets after ≈: the same amount, converted by molar mass. Where a name gives a salt, the structure may show the parent alone.

One test deals with HEK293. Nature of the test: cells. Particulars: Homo sapiens, ATCC CRL1573, HEK293; ASSAY_TEST Inhibition of Cell Viability; detection method Resazurin; Fluorescence (ex560/em590); MEDIA DMEM with 10% FBS; plate type 384well; TC; CORNING #3712; time 18 hr. In kind it is functional. In general terms: Alamar Blue is a resazurin reagent that responds to reducing activity.
In another test the test system is Staphylococcus aureus. Nature of the test: microbe, parasite or virus in culture. Particulars: ATCC 43300, 18 h, ASSAY_TEST Inhibition of Bacterial Growth, detection method Absorption (OD600), MEDIA CAMHB, plate type 384well, NBS, CORNING #3640.
For another test, the system named is Escherichia coli. Nature of the test: microbe, parasite or virus in culture. Particulars: ATCC 25922, 18 h, ASSAY_TEST Inhibition of Bacterial Growth, detection method Absorption (OD600), MEDIA CAMHB, plate type 384well, NBS, CORNING #3640.
A further test deals with Klebsiella pneumoniae. Nature of the test: microbe, parasite or virus in culture. Conditions: ATCC 700603, 18 h, ASSAY_TEST Inhibition of Bacterial Growth, detection method Absorption (OD600), MEDIA CAMHB, plate type 384well, NBS, CORNING #3640.
A further test relates to Pseudomonas aeruginosa. Kind of test: microbe, parasite or virus in culture. Conditions: ATCC 27853, 18 h, ASSAY_TEST Inhibition of Bacterial Growth, detection method Absorption (OD600), MEDIA CAMHB, plate type 384well, NBS, CORNING #3640.
The subject of the next test is Acinetobacter baumannii. Kind of test: microbe, parasite or virus in culture. Conditions: ATCC 19606, 18 h, ASSAY_TEST Inhibition of Bacterial Growth, detection method Absorption (OD600), MEDIA CAMHB, plate type 384well, NBS, CORNING #3640.
For a further test, the system named is Candida albicans. Kind of test: microbe, parasite or virus in culture. Conditions: ATCC 90028, ASSAY_TEST Inhibition of Fungal Growth, detection method Absorption (OD530), plate type 384well, NBS, CORNING #3640.

Description for Acinetobacter baumannii: Antibacterial activity against Acinetobacter baumannii ATCC 19606 (CO-ADD:GN_034); MIC in CAMBH media using NBS plates, by OD600
Description for Candida albicans: Antifungal activity against Candida albicans ATCC 90028 (CO-ADD:FG_001); MIC in YNB media using NBS plates, by OD630
Description for Cryptococcus neoformans: Antifungal activity against Cryptococcus neoformans H99 ATCC 208821 (CO-ADD:FG_002); MIC in YNB media using NBS plates, by Resazurin OD(600-570)
Description for Escherichia coli: Antibacterial activity against Escherichia coli ATCC 25922 (CO-ADD:GN_001); MIC in CAMBH media using NBS plates, by OD(600)
Description for Klebsiella pneumoniae: Antibacterial activity against Klebsiella pneumoniae MDR ATCC 70063 (CO-ADD:GN_003); MIC in CAMBH media using NBS plates, by OD(600)
Description for Pseudomonas aeruginosa: Antibacterial activity against Pseudomonas aeruginosa ATCC 27853 (CO-ADD:GN_042); MIC in CAMBH media using NBS plates, by OD(600)
Description for Staphylococcus aureus: Antibacterial activity against Staphylococcus aureus MRSA ATCC 43300 (CO-ADD:GP_020); MIC in CAMBH media, using NBS plates, by OD(600)

As a reminder, the CC50 is the concentration at which the toxic effect on the cells reaches its halfway point. For the compound `CN(C)[C@@H]1C(O)=C(C(N)=O)C(=O)[C@@]2(O)C(O)=C3C(=O)c4c(O)ccc(Cl)c4[C@@](C)(O)[C@H]3C[C@@H]12` [CHLORTETRACYCLINE HYDROCHLORIDE], the CC50 with HEK293 is greater than 10000 nM. Further, the MIC was greater than 10 µM in the test on Cryptococcus neoformans; 1.25 µM against Staphylococcus aureus; 5 µM in the test on Escherichia coli; greater than 10 µM in the test with Klebsiella pneumoniae; 2.5 µM against Pseudomonas aeruginosa; greater than 10 µM with Acinetobacter baumannii. Besides, the MIC against Candida albicans is greater than 10 µM.

Turning to `Cc1c2ccncc2c(C)c2c1[nH]c1ccccc12` [ELLIPTECINE], it took 1130 nM to reach half-maximal cytotoxicity in the test with HEK293 (CC50). In addition, the MIC against Cryptococcus neoformans is 10 µM (≈ 2.46 µg/mL); in the test with Staphylococcus aureus, 10 µM (≈ 2.46 µg/mL); in the test with Escherichia coli, greater than 10 µM; in the test on Klebsiella pneumoniae, greater than 10 µM; against Pseudomonas aeruginosa, greater than 10 µM; against Acinetobacter baumannii it was greater than 10 µM. For the same compound, the MIC in the test with Candida albicans was greater than 10 µM.

In the case of `CC1=C2C(=CC(C)(C)[C@@H]2O)C(=O)[C@](C)(O)C12CC2` [ILLUDIN M], the half-maximal cytotoxic concentration (CC50) in the test on HEK293 was 114 nM. The MIC in the test with Cryptococcus neoformans, in the test on Staphylococcus aureus, in the test on Escherichia coli, with Klebsiella pneumoniae, in the test with Pseudomonas aeruginosa and against Acinetobacter baumannii was greater than 10 µM each time. In the test on Candida albicans, this compound yielded an MIC greater than 10 µM.

In the case of `CC1(C)CCC2=C(O1)c1ccccc1C(=O)C2=O` [LAPACHONE], in the test on HEK293, the CC50 was greater than 10000 nM. Moreover, the MIC against Cryptococcus neoformans, with Staphylococcus aureus, with Escherichia coli, against Klebsiella pneumoniae, in the test with Pseudomonas aeruginosa and with Acinetobacter baumannii was greater than 10 µM each time. Besides, in the test on Candida albicans, the MIC is greater than 10 µM.

Compound `COc1cc2cc(c1Cl)N(C)C(=O)C[C@H](OC(=O)[C@H](C)N(C)C(C)=O)[C@]1(C)O[C@H]1[C@H](C)[C@@H]1C[C@@](O)(NC(=O)O1)[C@H](OC)/C=C/C=C(\C)C2` [MAYTANSINE] returned a CC50 with HEK293 greater than 10000 nM. The MIC in the test with Cryptococcus neoformans is 0.625 µM (≈ 0.433 µg/mL); with Staphylococcus aureus it was greater than 10 µM; in the test on Escherichia coli, greater than 10 µM; against Klebsiella pneumoniae, greater than 10 µM; in the test with Pseudomonas aeruginosa it was greater than 10 µM; against Acinetobacter baumannii it was greater than 10 µM. Further, the MIC with Candida albicans was greater than 10 µM.

Regarding `CC1OC(CC(=O)O)CC2=C1C(=O)c1c(O)cccc1C2=O` (stereo not given) [NANAOMYCIN], it took 188 nM to reach half-maximal cytotoxicity in the test on HEK293 (CC50). In addition, the MIC was 1.25 µM (≈ 0.378 µg/mL) in the test with Cryptococcus neoformans; 0.312 µM (≈ 0.0945 µg/mL) in the test on Staphylococcus aureus; greater than 10 µM with Escherichia coli; greater than 10 µM with Klebsiella pneumoniae; greater than 10 µM against Pseudomonas aeruginosa; greater than 10 µM against Acinetobacter baumannii. The MIC in the test with Candida albicans is 0.625 µM (≈ 0.189 µg/mL).

Compound `C=C(C)[C@H]1Cc2c(ccc3c2O[C@@H]2COc4cc(OC)c(OC)cc4[C@@H]2C3=O)O1` [ROTENONE] yielded a CC50 in the test with HEK293 greater than 10000 nM. The MIC against Cryptococcus neoformans was 10 µM (≈ 3.94 µg/mL); with Staphylococcus aureus, greater than 10 µM; against Escherichia coli it was greater than 10 µM; in the test with Klebsiella pneumoniae, greater than 10 µM; against Pseudomonas aeruginosa it was greater than 10 µM; against Acinetobacter baumannii, greater than 10 µM. Moreover, the MIC against Candida albicans was greater than 10 µM.

For `CO[C@H]1C[C@@H]2CC[C@@H](C)[C@@](O)(O2)C(=O)C(=O)N2CCCC[C@H]2C(=O)O[C@H]([C@H](C)C[C@@H]2CC[C@@H](O)[C@H](OC)C2)CC(=O)[C@H](C)/C=C(\C)[C@@H](O)[C@@H](OC)C(=O)[C@H](C)C[C@H](C)/C=C/C=C/C=C/1C` [SIROLIMUS], the CC50 in the test with HEK293 was greater than 10000 nM. In addition, the MIC is 0.156 µM (≈ 0.143 µg/mL) with Cryptococcus neoformans; greater than 10 µM against Staphylococcus aureus; greater than 10 µM with Escherichia coli; greater than 10 µM against Klebsiella pneumoniae; greater than 10 µM against Pseudomonas aeruginosa; greater than 10 µM in the test on Acinetobacter baumannii. The compound further returned an MIC with Candida albicans of no more than 0.0781 µM.

In the test with HEK293, `COC1=C(N)C(=O)c2nc(-c3nc(C(=O)O)c(C)c(-c4ccc(OC)c(OC)c4O)c3N)ccc2C1=O` [STREPTONIGRIN] returned a CC50 of 115 nM. Also, the MIC in the test with Cryptococcus neoformans was 1.25 µM (≈ 0.633 µg/mL); with Staphylococcus aureus, no more than 0.0781 µM; with Escherichia coli, 5 µM (≈ 2.53 µg/mL); in the test on Klebsiella pneumoniae it was greater than 10 µM; against Pseudomonas aeruginosa, 10 µM (≈ 5.06 µg/mL); with Acinetobacter baumannii, greater than 10 µM. In the test with Candida albicans, this compound registered an MIC of 0.156 µM (≈ 0.0792 µg/mL).

In turn, `COC[C@H]1OC(=O)c2coc3c2[C@@]1(C)C1=C(C3=O)[C@@H]2CCC(=O)[C@@]2(C)C[C@H]1OC(C)=O` [WORTMANNIN] gave a CC50 in the test with HEK293 of 7830 nM. Further, the MIC was 5 µM (≈ 2.14 µg/mL) against Cryptococcus neoformans; greater than 10 µM against Staphylococcus aureus; greater than 10 µM with Escherichia coli; greater than 10 µM against Klebsiella pneumoniae; greater than 10 µM against Pseudomonas aeruginosa; greater than 10 µM in the test on Acinetobacter baumannii. In the test on Candida albicans, this compound gave an MIC of 0.625 µM (≈ 0.268 µg/mL).

The values above are taken from ChEMBL document CHEMBL4296183, “CO-ADD screening of NIH NCI Natural Product Set III” (2020).
